Data from article PMC12645191, “Dicarboxylate and dicarboxylic acid appended supramolecular self-associating amphiphiles as antimicrobial agents against high priority bacterial pathogens” (Organic & Biomolecular Chemistry, 2025).
In brackets after ≈: the same amount, converted by molar mass. Read-outs that look alike come from different tables or passages of the source.

Legend:
[1] = bi-directional permeability in Caco-2 cell line; format: in vitro ADME, human; details: human; for efflux ratio at 2 h / recovery at 2 h: Caco-2, pH 7.4, Caco-2; for Papp A→B at 2 h / Papp B→A at 2 h: Caco-2, pH 7.4, Caco-2, 5 or 10 µM, HBSS pH 7.4, 2 hours
Protocol: (§1) Metabolic stability was assessed in mouse and rat liver microsomes. Microsomes are subcellular fractions of hepatocytes and contain CYP450s, the predominant enzymes involved in first-pass metabolism.[66] […] A plasma protein binding assay was performed to assess the extent of compound binding to plasma proteins. This is key as only unbound compound is free to distribute and exert a pharmacological effect. […] To assess the potential for this sub-class of SSAs to be developed as drugs for oral administration, Caco-2 permeability assays were also performed, as a cellular model indicative of human intestinal permeability. […]
(§2) Sample analysis was by electrospray ionisation. […]
(§3) Bi-directional Permeability in Caco-2 Cell Line:
(§4) The bi-directional permeability in Caco-2 cell lines was determined by seeding cells onto an HTS Transwell plate. Cells were cultivated for 14-18 days in a cell culture incubator at 37 °C, 5 % CO2, 95 % relative humidity. Cell culture medium was replaced every other day. To assess monolayer integrity the transepithelial electrical resistance (TEER) across the monolayer was measured using Millicell Epithelial volt-ohm meter prior to assay and Lucifer yellow (LY) fluorescence measurement post-assay.
(§5) Test and control compounds were prepared in DMSO and diluted in Hank’s Balanced Saline […]
(§6) Solution (HBSS, pH 7.4) to a final concentration of 5 or 10 µM. Compound was added to the […]
(§7) donor compartment of the transwell plate for both apical to basolateral (A>B) and basolateral […]
(§8) to apical (B>A) measurements, with blank HBSS being added to the receiver compartment.
(§9) The transwell plate was then incubated at 37 °C, 5 % CO2 for 2 hours.

[2] = kinetic solubility determination in PBS pH 7.4; details: upper limit set at 300 µM; for solubility: PBS, pH 7.4, aqueous buffer, kinetic from dmso stock, Solubility in PBS pH 7.4, kinetic
[3] = test system: all Gram-positive bacteria tested; experiment: inhibition of bacterial growth, span over the Gram-positive panel; format: cell-based, S. aureus, E. faecalis, E. faecium; details: SSA 5.0 mM, 20 hours; read-out: inhibition against all Gram-positive bacteria tested (span)
Protocol: With the self-associative properties of 1–10 established, the antimicrobial activity of these SSAs were determined against a panel of clinically relevant, high-priority pathogens including: P. aeruginosa PAO1; Klebsiella pneumonia (K. pneumoniae) M6; E. coli NCTC 12923; Acinetobacter baumannii (A. baumannii) ATCC 17978; S. aureus ATCC 9144; Enterococcus faecalis (E. faecalis) NCTC 775; and Enterococcus faecium (E. faecium) NCTC 12204. […] However, it should be noted that the SSA stock solution was prepared in a H2O 5% EtOH solution, to ensure that the SSA aggregates formed were in line with those characterised within the scope of the SSA self-association studies.
Section 3: Biological methods
These methods were taken directly from UK Health and Security Office (UKHSA) standard […]
Preparation of Luria Broth media (LB): Yeast extract (5.0 g), tryptone (10.0 g) and sodium chloride (10.0 g) were dissolved in dH₂O (1.0 L) then divided into bottles and autoclaved.
Preparation of Luria Broth (LB) agar plates: Agar (6.0 g) was added to LB (400 mL) and autoclaved. […]
Preparation of 96 well microplate for MIC50: The 1:100 cell suspension (150 µL) was dispensed into individual wells under sterile conditions. […] The plates were sealed using parafilm, then incubated at 37 °C in a microplate reader for 20 hours. […]

Caco-2 cell line = experiment: bi-directional permeability in Caco-2 cell line; format: in vitro ADME, human
Protocol: as §1, §2, §3, §4, §5, §6, §7, §8, §9

[4] = Caco-2, 5 or 10 µM, HBSS pH 7.4, 2 hours

Row | efflux ratio at 2 h [1] | Papp A→B at 2 h [1] [×10⁻⁶ cm/s] | Papp B→A at 2 h [1] [×10⁻⁶ cm/s] | recovery at 2 h ([1]; read-out: Recovery (%) AP-BL) [%] | recovery at 2 h ([1]; read-out: Recovery (%) BL-AP) [%] | solubility [2] [µM] | Efflux Ratio (Caco-2 cell line; Caco-2) | Recovery (%) AP-BL (Caco-2 cell line; Caco-2) [%] | Recovery (%) BL-AP (Caco-2 cell line; Caco-2) [%] | Papp (A-B) (Caco-2 cell line; [4]) | Papp (B-A) (Caco-2 cell line; [4]) | Solubility in PBS pH 7.4 ([2]; kinetic) [μM] | SMILES | inhibition at 5000 µM [3] [%]
1 | 1.23 | 0.19 | 0.23 | 107 | 89.7 | 303 (≈ 101 µg/mL) |  |  |  |  |  |  | O=C(O)CC[C@H](NC(=O)Nc1ccc(C(F)(F)F)cc1)C(=O)O [SSA 1] | 
2 |  |  |  |  |  |  | 1.71 | 99.71 | 80.26 | 0.14 10-6, cm/s | 0.24 10-6, cm/s | 297.29 | O=C(O)CC[C@H](NC(=O)Nc1ccc(C(F)(F)F)cc1)C(=O)O [SSA 2] | 22 to 80
3 | 2.31 | 0.1 | 0.24 | 103 | 87.4 | 310 (≈ 104 µg/mL) |  |  |  |  |  |  | O=C(O)CC[C@@H](NC(=O)Nc1ccc(C(F)(F)F)cc1)C(=O)O [SSA 3] | 
4 | 1.93 | 0.17 | 0.32 | 115 | 106 | 305 (≈ 105 µg/mL) |  |  |  |  |  |  | O=C(O)CC[C@H](NC(=O)Nc1ccc(Br)cc1)C(=O)O [SSA 9] | 
